Measurements from patent publication US20250051277A1, “DELIVERY OF THERAPEUTIC ALKALOID COMPOUNDS” (Sensorium Therapeutics, Inc., priority 2021, published 2025).
Read-outs that look alike come from different tables or passages of the source.

Legend:
[1] = format: physicochemical; details: SGF with pepsin, pH 1.5, 37° C.; for Condition 1 Conversion (%), first value of pair x/y: first of two values; for Condition 1 Conversion (%), second value of pair x/y: second of two values; for Condition 1 Conversion (%): 0.5 mM
[2] = format: physicochemical; details: DI water, 25° C., 0.5 mM

SMILES | Condition 2 Conversion (%) ([2]; time 1 min) | Condition 2 Conversion (%) ([2]; time 5 min) | Condition 2 Conversion (%) ([2]; time 30 min) | Condition 2 Conversion (%) ([2]; time 1 h) | Condition 2 Conversion (%) ([2]; time 4 h) | Condition 2 Conversion (%) ([2]; time 24 h) | Condition 1 Conversion (%) ([1]; time 1 min) | Condition 1 Conversion (%) ([1]; time 5 min) | Condition 1 Conversion (%) ([1]; time 30 min) | Condition 1 Conversion (%) ([1]; time 1 h) | Condition 1 Conversion (%) ([1]; time 4 h) | Condition 1 Conversion (%) ([1]; time 24 h) | other results
COc1ccc([C@@]23CC/C(=N/OC(C)(C)OC)C[C@@H]2N(C)CC3)cc1OC [Compound 219, (Z,3aS,7aS)-3a-(3,4-dimethoxyphenyl)-N-(1-methoxy-1-methyl-ethoxy)-1-methyl-2,3,4,5,7,7a-hexahydroindol-6-imine] | 0 | 0 | 0 | 0 | 0 | 0 |  |  |  |  |  |  | Condition 1 Conversion (%), first value of pair x/y ([1]; time 1 min): 100%; Condition 1 Conversion (%), second value of pair x/y ([1]; time 1 min): 0%; Condition 1 Conversion (%), first value of pair x/y ([1]; time 5 min): 100%; Condition 1 Conversion (%), second value of pair x/y ([1]; time 5 min): 0%; Condition 1 Conversion (%), first value of pair x/y ([1]; time 30 min): 0%; Condition 1 Conversion (%), second value of pair x/y ([1]; time 30 min): 100%; Condition 1 Conversion (%), first value of pair x/y ([1]; time 1 h): 0%; Condition 1 Conversion (%), second value of pair x/y ([1]; time 1 h): 100%; Condition 1 Conversion (%), first value of pair x/y ([1]; time 4 h): 0%; Condition 1 Conversion (%), second value of pair x/y ([1]; time 4 h): 100%; Condition 1 Conversion (%), first value of pair x/y ([1]; time 24 h): 0%; Condition 1 Conversion (%), second value of pair x/y ([1]; time 24 h): 100%
COc1ccc([C@@]23CCC(=NNc4ccc5ccccc5n4)C[C@@H]2N(C)CC3)cc1OC [Compound 366, N-[[(3aS,7aS)-3a-(3,4-dimethoxyphenyl)-1-methyl-2,3,4,5,7,7a-hexahydroindol-6-ylidene]amino]quinolin-2-amine] | 0 | 0 | 10.11 | 11.33 | 12.6 | 17.4 | 0 | 8.9 | 47.1 | 77.4 | 94.1 | 100 | 
COc1ccc([C@@]23CCC(=NNC(=O)Nc4ccc(S(C)(=O)=O)cc4)C[C@@H]2N(C)CC3)cc1OC [Compound 255, 1-[[(3aS,7aS)-3a-(3,4-dimethoxyphenyl)-1-methyl-2,3,4,5,7,7a-hexahydroindol-6-ylidene]amino]-3-(4-methylsulfonylphenyl)urea] | 0 | 0 | 0 | 2.4 | 8.4 | 6 | 20.9 | 65.2 | 88.6 | 89.8 | 88.1 | 88 | 
COc1ccc([C@@]23CC/C(=N\NC(=O)Nc4ccccc4Cl)C[C@@H]2N(C)CC3)cc1OC [Compound 249, 1-[(E)-[(3aS,7aS)-3a-(3,4-dimethoxyphenyl)-1-methyl-2,3,4,5,7,7a-hexahydroindol-6-ylidene]amino]-3-(2-chlorophenyl)urea] | 0 | 0 | 0 | 0 | 9.23 | 24.65 | 0 | 70.48 | 96.4 | 96.5 | 96.72 | 96.8 | 
COc1ccc(NC(=O)NN=C2CC[C@@]3(c4ccc(OC)c(OC)c4)CCN(C)[C@H]3C2)cc1 [Compound 254, 1-[[(3aS,7aS)-3a-(3,4-dimethoxyphenyl)-1-methyl-2,3,4,5,7,7a-hexahydroindol-6-ylidene]amino]-3-(4-methoxyphenyl)urea] | 0 | 0 | 0 | 1.1 | 16.2 | 17.6 | 0 | 2.4 | 84.7 | 91.9 | 91.9 | 92 | 
